Where two headings read alike, the source gives them in different places.
How the values were obtained:
AChE [1] = settings: relative to (±)-huperzine A; U.S. Pat. No. 4,929,731; cited from earlier work
mice = settings: G. P. Vincent et al., 1987; cited from earlier work
squirrel monkeys = settings: G. P. Vincent et al., 1987; cited from earlier work
myasthenia gravis = settings: 128 patients suffering from myasthenia gravis; Y. S. Cheng, 1986; cited from earlier work
FBS AChE = molecular target: T1, FBS AChE (Bos taurus, UniProt P23795); assay: Inhibition of AChE (dissociation constant Ki, procedure of Y. Ashani et al.); assay type: biochemical
T1 construct: FBS AChE; from tissue; host or cells: fetal bovine serum (FBS read as this abbreviation)
T1 sequence (P23795 31-613): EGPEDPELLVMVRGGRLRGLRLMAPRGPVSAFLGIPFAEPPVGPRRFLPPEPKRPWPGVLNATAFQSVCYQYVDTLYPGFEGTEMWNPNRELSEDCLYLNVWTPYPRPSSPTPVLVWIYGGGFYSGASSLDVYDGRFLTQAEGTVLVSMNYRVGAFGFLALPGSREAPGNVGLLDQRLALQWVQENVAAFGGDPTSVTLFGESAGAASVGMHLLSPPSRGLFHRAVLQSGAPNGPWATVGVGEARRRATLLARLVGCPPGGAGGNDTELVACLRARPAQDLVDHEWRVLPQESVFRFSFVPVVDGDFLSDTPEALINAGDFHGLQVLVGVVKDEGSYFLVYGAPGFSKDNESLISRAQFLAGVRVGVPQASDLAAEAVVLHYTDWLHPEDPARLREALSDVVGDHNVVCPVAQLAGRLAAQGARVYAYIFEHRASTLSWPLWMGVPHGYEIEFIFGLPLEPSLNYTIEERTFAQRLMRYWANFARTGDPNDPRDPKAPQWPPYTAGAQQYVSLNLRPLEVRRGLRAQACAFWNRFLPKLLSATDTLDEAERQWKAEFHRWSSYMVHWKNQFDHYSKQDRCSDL
Description: *Dissociation constant (Ki) for inhibition of AChE determined

[2] = system: acetylcholinesterase (ACHE); settings: cited from earlier work
AChE [3] = settings: 0.65 mg/kg i.m., cited from earlier work
Alzheimer's disease = settings: K. L. Davis, NIA meeting, Jan. 8-10, 1990; cited from earlier work
[4] = procedure of Y. Ashani et al., Molecular Pharmacol., 45, 555 (1994), read-out: FBS AChE Ki, dissociation constant for inhibition of AChE

CC=C1C2C=C(C)CC1(CN)c1ccc(=O)[nH]c1C2 (stereo not shown)
times less potent than (±)-huperzine A as an inhibitor of AChE (AChE [1]): about 166 times

CC=C1C2C=C(C)CC1(N)c1ccc(=O)[nH]c1C2 (single isomer, unassigned) [huperzine A]
cognition enhancement in mice (mice): effective cognition enhancer | cognition enhancement in squirrel monkeys (squirrel monkeys): effective cognition enhancer | cases in which clinical manifestations of myasthenia gravis are controlled (myasthenia gravis): 99%

C=CCC1c2[nH]c(=O)ccc2C2(N)CC(C)=CC1/C2=C\C (stereo not shown) [Compound 8a, (11E)-10-Allyl-5-amino-11-ethylidene-5,6,9,10-tetrahydro-7-methyl-5,9-methanocycloocta[b]pyridin-5(1H)-one]
Ki (FBS AChE; [4]): 275 µM

C/C=C1\C2C=C(C)CC1(N)c1ccc(=O)[nH]c1C2C (stereo not shown) [Compound 8b, (11E)-5-Amino-11-ethylidene-5,6,9,10-tetrahydro-7,10-dimethyl-5,9-methanocycloocta[b]pyridin-2(1H)-one]
Ki (FBS AChE; [4]): 0.008 ± 0.002 µM

C/C=C1\C2C=C(C)CC1(N)c1ccc(=O)[nH]c1C2CC (stereo not shown) [Compound 8c, (11E)-5-Amino-10-ethyl-11-ethylidene-5,6,9,10-tetrahydro-7-methyl-5,9-methanocycloocta[b]pyridin-2(1H)-one]
Ki (FBS AChE): 2.04 µM

C/C=C1\C2C=C(C)CC1(N)c1ccc(=O)[nH]c1C2CCC (stereo not shown) [Compound 8d, (11E)-5-Amino-11-ethylidene-5,6,9,10-tetrahydro-7-methyl-10-propyl-5,9-methanocycloocta[b]pyridin-2(1H)-one]
Ki (FBS AChE; [4]): 207 µM

C/C=C1\C2C=C(C)CC1(N)c1ccc(=O)[nH]c1C2CCCC (stereo not shown) [Compound 8e, (11E)-5-Amino-10-butyl-11-ethylidene-5,6,9,10-tetrahydro-7-methyl-5,9-methanocycloocta[b]pyridin-2(1H)-one]
Ki (FBS AChE; [4]): 192 µM

CC1=CC2Cc3[nH]c(=O)ccc3C3(C1)NCCCC23 (stereo not shown) [huperzine B]
usefulness as ACHE inhibitors relative to THA and physostigmine [2]: appear superior to THA and physostigmine

CNC(=O)Oc1ccc2c(c1)[C@]1(C)CCN(C)[C@@H]1N2C [physostigmine]
maximal duration of AChE inhibitory action (AChE [3]; X. C. Tang et al., 1989): ≤ 60 min | side effects (AChE [3]): considerable side effects | cognitive improvement (Alzheimer's disease): modest cognitive improvement

Source: patent US5547960A (Mayo Foundation for Medical Education and Research, priority 1994, dated 1996)
